Among the data in US7273863B1, “Benzophenones as inhibitors of reverse transcriptase” (SmithKline Beecham Corporation, priority 1999, dated 2007) are IC50 values, retold here.

SMILES strings stand for the structures.

Assay [1] deals with isogenic HIV-1 RT mutant virus V108I. Briefly: HeLa cell assay (HIV-LTR β-galactosidase reporter). The class given is cell-based. The following applies: Human immunodeficiency virus 1, HeLa, read-out: IC50 (nM) Range. How it is done:
(§1) The HeLa cell assay was performed according to a modification of Kimpton J. and Emerman M., Detection of replication-competent and pseudotyped human immunodeficiency virus with a sensitive cell line on the basis of activation of an integrated β-galactosidase gene, J. Virol. 66:2232-2239 (1992), in which HIV-1 infection is detected by the activation of an HIV-LTR driven β-galactosidase reporter that is integrated into the genome of a CD4^+ HeLa cell line. Quantitation of β-galactosidase is achieved by measuring the activation of a chemiluminescent substrate (Tropix). The concentration of each compound required to inhibit 50% (IC50) of the HIV-1 induced β-galactosidase signal, relative to untreated controls, was determined for each isogenic, recombinant virus.
(§2) HeLa-CD4-LTR-β-gal cells were obtained from the NIH AIDS Research and Reference Reagent Program. Cells were propagated in DMEM containing 10% fetal bovine serum, 0.2 mg/ml geneticin and 0.1 mg/ml hygromycin B. Cells were routinely split by trypsinization when confluency reached 80% (approximately every 2 to 3 days).
(§3) DNA encoding the HIV-1 reverse transcriptase was subcloned from a M13 phage into a general shuttle vector, pBCSK+, as a ˜1.65 kbp EcoRI/HindIII ended DNA fragment. The HIV DNA insert of the resulting plasmid, pRT2, was completely sequenced on both strands prior to use in site directed mutagenesis experiments. Specific amino acid replacements were made using Stratagene Quick Change reagents and mutagenic oligonucleotides from Oligos. Following mutagenesis, the entire mutant RT coding sequence was verified by sequencing both DNA strands.
(§4) Mutant HIV-1 strains were isolated by a modified Recombinant Virus Assay (Kellam P. and Larder B., Recombinant virus assay: a rapid, phenotypic assay for assessment of drug susceptibility of human immunodeficiency virus type 1 isolates, Antimicrobial Agents and Chemotherapy, 38:23-30, 1994). 1×10^7 Jurkat T-cells (maintained in RPMI containing 10% fetal bovine serum, split 1:5 every 5 to 6 days) were co-transfected with EcoRI/HindIII digested mutant RT plasmid and Bst EII-digested HIV-1HXB2ΔRT DNA in the presence of DMRIE-C transfection reagent (Gibco) according to supplier's recommended protocol. Each mutant RT coding sequence was crossed into the RT-deleted HIV-1 viral DNA backbone by in vivo homologous recombination. Transfected cell cultures were expanded and monitored until syncitia formation and CPE were extensive. Virus was harvested by clear spin of the culture supernatants and frozen at −80 C as primary stock. Recombinant progeny virus was sequenced in the RT region to confirm the mutant genotype. Virus stocks were further expanded by infection of Jurkat cells, harvested and stored as frozen aliquots. Stocks were titered in HeLa MAGI cells for assay.
(§5) The HIV-1HXB2 mutants were titered in the HeLa MAGI assay system to determine the relative light units (RLU) per ml, a measure of infectivity relevant for this assay system. Virus stocks were diluted in a 2-fold series into DMEM containing 10% fetal bovine serum plus 20 ug/ml DEAE-dextran and assayed as described in the Experimental Protocol section, below.
(§6) 96-well microtiter plate(s) (Costar #3598) were seeded with 3×10^3 HeLa-CD4-LTR-β-gal in 100 μl DMEM containing 10% fetal bovine serum. Plates were placed in a 37° C., 5% CO2 humidified incubator overnight. The following day, mutant virus stocks were thawed in a room temperature water bath and diluted into DMEM containing 10% fetal bovine serum and 20 μg/ml DEAE-dextran to achieve an input of 1500 to 2000 RLU/ml. All media was removed with an 8 channel manifold aspirator and 35 μl (50 to 70 total RLUs) of diluted virus was added to each well for virus adsorption. Plates were placed in a 37° C., 5% CO2 humidified incubator for 1.5 to 2 hours.
(§7) Compound titration plates were prepared at 1.35× final concentration during the virus adsorption period. […]

The subject of assay [2] is isogenic HIV-1 RT mutant virus L100I. Briefly: HeLa cell assay (HIV-LTR β-galactosidase reporter). The class given is cell-based. The following applies: Human immunodeficiency virus 1, HeLa, read-out: IC50 (nM) Range. As for the experimental part: as §1, §2, §3, §4, §5, §6, §7
The subject of assay [3] is isogenic HIV-1 RT mutant virus P236L. Put plainly: HeLa cell assay (HIV-LTR β-galactosidase reporter). Format: cell-based. The following applies: Human immunodeficiency virus 1, HeLa, read-out: IC50 (nM) Range. How it is done:
as §1, §2, §3, §4, §5, §6, §7

In assay [4] the test system is isogenic HIV-1 RT mutant virus V108I/Y181C. Put plainly: HeLa cell assay (HIV-LTR β-galactosidase reporter). The class given is cell-based. The following applies: Human immunodeficiency virus 1, HeLa, read-out: IC50 (nM) Range. As for the experimental part: as §1, §2, §3, §4, §5, §6, §7
Assay [5] deals with isogenic HIV-1 RT mutant virus V106A/Y181C. Put plainly: HeLa cell assay (HIV-LTR β-galactosidase reporter). Format: cell-based. The following applies: Human immunodeficiency virus 1, HeLa, read-out: IC50 (nM) Range. As for the experimental part:
as §1, §2, §3, §4, §5, §6, §7

Assay [6] relates to isogenic HIV-1 RT mutant virus K103N/V108I. Put plainly: HeLa cell assay (HIV-LTR β-galactosidase reporter). Format: cell-based. The following applies: Human immunodeficiency virus 1, HeLa, read-out: IC50 (nM) Range. As for the experimental part: as §1, §2, §3, §4, §5, §6, §7
Assay [7] deals with isogenic HIV-1 RT mutant virus G190A. Briefly: HeLa cell assay (HIV-LTR β-galactosidase reporter). Format: cell-based. The settings on record: Human immunodeficiency virus 1, HeLa, read-out: IC50 (nM) Range. As for the experimental part:
as §1, §2, §3, §4, §5, §6, §7

For assay [8], the system named is isogenic HIV-1 RT mutant virus V106I. Put plainly: HeLa cell assay (HIV-LTR β-galactosidase reporter). The class given is cell-based. The settings on record: Human immunodeficiency virus 1, HeLa, read-out: IC50 (nM) Range. How it is done:
as §1, §2, §3, §4, §5, §6, §7

Assay [9] deals with isogenic HIV-1 RT mutant virus Y181C. Put plainly: HeLa cell assay (HIV-LTR β-galactosidase reporter). Format: cell-based. The following applies: Human immunodeficiency virus 1, HeLa, read-out: IC50 (nM) Range. How it is done:
as §1, §2, §3, §4, §5, §6, §7

In assay [10] the test system is isogenic HIV-1 RT mutant virus K103N/G190A. Briefly: HeLa cell assay (HIV-LTR β-galactosidase reporter). Format: cell-based. The following applies: Human immunodeficiency virus 1, HeLa, read-out: IC50 (nM) Range. How it is done:
as §1, §2, §3, §4, §5, §6, §7

The test system of assay [11] is isogenic HIV-1 RT mutant virus K103N/P225H. Briefly: HeLa cell assay (HIV-LTR β-galactosidase reporter). The class given is cell-based. The following applies: Human immunodeficiency virus 1, HeLa, read-out: IC50 (nM) Range. How it is done:
as §1, §2, §3, §4, §5, §6, §7

In assay [12] the test system is isogenic HIV-1 RT mutant virus K103N. Briefly: HeLa cell assay (HIV-LTR β-galactosidase reporter). The class given is cell-based. The settings on record: Human immunodeficiency virus 1, HeLa, read-out: IC50 (nM) Range. How it is done: as §1, §2, §3, §4, §5, §6, §7
For assay [13], the system named is isogenic HIV-1 RT mutant virus K103N/Y181C. Put plainly: HeLa cell assay (HIV-LTR β-galactosidase reporter). Format: cell-based. The settings on record: Human immunodeficiency virus 1, HeLa, read-out: IC50 (nM) Range. As for the experimental part:
as §1, §2, §3, §4, §5, §6, §7

For assay [14], the system named is isogenic HIV-1 RT mutant virus P225H. Briefly: HeLa cell assay (HIV-LTR β-galactosidase reporter). Format: cell-based. The settings on record: Human immunodeficiency virus 1, HeLa, read-out: IC50 (nM) Range. How it is done: as §1, §2, §3, §4, §5, §6, §7
For assay [15], the system named is isogenic HIV-1 RT mutant virus V106I/Y181C. Briefly: HeLa cell assay (HIV-LTR β-galactosidase reporter). The following applies: Human immunodeficiency virus 1, HeLa, read-out: IC50 (nM) Range. The class given is cell-based. How it is done:
as §1, §2, §3, §4, §5, §6, §7

The subject of assay [16] is WTRVA. Put plainly: HeLa cell assay (HIV-LTR β-galactosidase reporter). The class given is cell-based, HIV-1. The following applies: Human immunodeficiency virus 1, Virus Type WTRVA, read-out: IC50 (nM) Range. As for the experimental part:
as §1, §2, §3, §4, §5, §6, §7

The test system of assay [17] is NEV-R. Put plainly: MT4 cell assay, antiviral HIV activity (propidium iodide). The class given is cell-based. The following applies: Human immunodeficiency virus 1, MT4, read-out: IC50 (nM) Range.

As for `Cc1cc(C#N)cc(C(=O)c2cc(Cl)ccc2OCC(=O)Nc2ccc(OCCCN3CC=CC3)cc2C)c1` [Compound 593], the 50% inhibitory concentration (IC50) in assay [1], in [2], in assay [3], in assay [4], in assay [5] and in assay [6] was below 10 nM each time. Moreover, the IC50 in [7], in assay [8], in [9], in assay [10], in assay [11] and in [12] was below 10 nM throughout. Besides, the IC50 in assay [13] was below 10 nM; in [14], below 10 nM; in assay [15] it was 11 to 100 nM; in assay [16], below 10 nM; in assay [17] it was below 10 nM.

For `Cc1cc(S(N)(=O)=O)ccc1NC(=O)COc1ccc(Cl)cc1C(=O)c1cccc(C#N)n1` [Compound 637], the concentration for half-maximal inhibition (IC50) in assay [2], in assay [3], in assay [4], in assay [5], in assay [6] and in [7] was below 10 nM each time. Further, the IC50 in assay [8], in assay [9], in [10], in assay [11], in assay [12] and in assay [13] was below 10 nM throughout. The half-inhibitory concentration (IC50) in assay [14], in assay [15], in assay [16] and in assay [17] was below 10 nM each time.

For the compound `Cc1cc(S(N)(=O)=O)ccc1NC(=O)COc1ccc(Cl)cc1C(=O)c1cc(Cl)cc(C#N)c1` [Compound 475], the IC50 in assay [1], in [2], in [3], in assay [4], in assay [5] and in assay [6] was below 10 nM throughout. The IC50 in [7], in assay [8], in [9], in [10], in assay [11] and in assay [12] was below 10 nM each time. The IC50 is below 10 nM in assay [13]; below 10 nM in assay [14]; 11 to 100 nM in [15]; below 10 nM in [16]; below 10 nM in [17].

With `Cc1cc(S(N)(=O)=O)ccc1NC(=O)COc1ccc(Cl)cc1C(=O)c1cc(F)cc(C(F)(F)F)c1` [Compound 78], the IC50 was below 10 nM in assay [1]; below 10 nM in assay [2]; below 10 nM in assay [3]; 11 to 100 nM in assay [4]; 11 to 100 nM in assay [5]; below 10 nM in assay [6]. In addition, the IC50 in assay [7] is below 10 nM; in assay [9], below 10 nM; in [10], 11 to 100 nM; in assay [11] it was below 10 nM; in assay [12] it was below 10 nM; in [13], below 10 nM. Also, the half-inhibitory concentration (IC50) in assay [14], in [16] and in assay [17] was below 10 nM in each case.
